Measurements taken from US20080009418A1, “Selective Inhibitors” (Alchemia LTD., priority 2004, published 2008).

Columns and labels:
Human melanocortin (MC5) = biological target: T1, Human melanocortin (MC5) (Homo sapiens, UniProt P33032); assay: Radioligand binding, human melanocortin MC5 membranes, FlashPlate, [125I]-NDP-αMSH; conditions: compound at 10 μM, [125I]-NDP-αMSH; for A5: inhibition of radioligand binding: human MC5 membranes
T1 construct: purchased Perkin Elmer Biosignal
Summary of the method: (§1)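 Cloned human receptor membranes were coated onto FlashPlate wells and incubated with radioligand and compound (added from a 0.5 mM DMSO daughter plate) for 1 hour at room temperature in the dark. Scintillation counting gave percent inhibition, with DMSO defining total and reference ligand defining non-specific binding.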

Mouse urotensin (mUR2) = biological target: T2, Mouse urotensin (mUR2) (Mus musculus, UniProt Q8VIH9); assay: Radioligand binding, mouse urotensin mUR2 membranes, FlashPlate, [125I]-Urotensin II; conditions: compound at 10 μM, [125I]-Urotensin II; for A11: inhibition of radioligand binding: mouse mUR2 membranes
T2 construct: purchased Perkin Elmer Biosignal
T2 sequence (Q8VIH9 1-385): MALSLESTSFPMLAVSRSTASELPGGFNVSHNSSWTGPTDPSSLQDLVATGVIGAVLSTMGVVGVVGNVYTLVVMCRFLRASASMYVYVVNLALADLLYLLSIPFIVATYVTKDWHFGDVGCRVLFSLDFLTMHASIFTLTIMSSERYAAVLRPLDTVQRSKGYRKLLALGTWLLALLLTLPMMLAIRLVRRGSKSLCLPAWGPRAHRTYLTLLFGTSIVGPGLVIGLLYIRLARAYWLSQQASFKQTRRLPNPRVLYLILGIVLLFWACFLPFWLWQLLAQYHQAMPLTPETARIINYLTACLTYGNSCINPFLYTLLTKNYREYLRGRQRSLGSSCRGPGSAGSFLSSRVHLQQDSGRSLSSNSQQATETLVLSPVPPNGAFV
Summary of the method: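 Cloned mouse urotensin (mUR2) receptor membranes from Perkin Elmer Biosignal were immobilized in FlashPlate microplates using a proprietary coating. Each well got 19.5 μl buffer, then 0.5 μl of DMSO, reference ligand, or compound. Adding 5 μl of [125I]-Urotensin II, diluted to 5× final concentration in binding buffer, started binding. Plates were sealed with TopSeal-A and incubated 1 hour at room temperature in the dark. Wells were counted for 30 seconds each on a TopCount after a 60-second delay, and percentage inhibition was calculated.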

Human μ-opioid (MOP) = biological target: T3, Human μ-opioid (MOP) (Homo sapiens, UniProt P35372); assay: Radioligand binding, human μ-opioid (MOP) membranes, FlashPlate, [3H]-Naloxone; conditions: compound at 10 μM, [3H]-Naloxone; for A7: inhibition of radioligand binding: human MOP membranes
T3 construct: purchased Perkin Elmer Biosignal
Summary of the method: as §1

Human Melanocortin (MC3) = biological target: T4, Human Melanocortin (MC3) (Homo sapiens, UniProt P41968); assay: Radioligand binding, human melanocortin MC3 membranes, FlashPlate, [125I]-NDP-αMSH; conditions: compound at 10 μM, [125I]-NDP-αMSH; for A3: inhibition of radioligand binding: human MC3 membranes
T4 construct: purchased Perkin Elmer Biosignal
Summary of the method: as §1

[1] = biological target: T5, Human melanin-concentrating hormone (MCH1) (Homo sapiens, UniProt Q99705); assay: Radioligand binding, human melanin-concentrating hormone MCH1 membranes, FlashPlate, [125I]-S36057; conditions: compound at 10 μM; for A6: inhibition of radioligand binding: [125I]-S36057, human MCH1 membranes
T5 construct: purchased Perkin Elmer Biosignal
Summary of the method: as §1

Human δ-opioid (DOP) = biological target: T6, Human δ-opioid (DOP) (Homo sapiens, UniProt P41143); assay: Radioligand binding, human δ-opioid (DOP) membranes, FlashPlate, [3H]-Bremazocine; conditions: compound at 10 μM, [3H]-Bremazocine; for A1: inhibition of radioligand binding: human DOP membranes
T6 construct: purchased Perkin Elmer Biosignal
Summary of the method: as §1

[2] = biological target: T7, Human neuropeptide Y (NPY-Y1) (Homo sapiens, UniProt P25929); assay: Radioligand binding, human neuropeptide Y NPY-Y1 membranes, FlashPlate, [125I]-PYY; conditions: compound at 10 μM, [125I]-PYY; for A9: inhibition of radioligand binding: human NPY-Y1 membranes
T7 construct: purchased Perkin Elmer Biosignal
T7 sequence (P25929 1-384): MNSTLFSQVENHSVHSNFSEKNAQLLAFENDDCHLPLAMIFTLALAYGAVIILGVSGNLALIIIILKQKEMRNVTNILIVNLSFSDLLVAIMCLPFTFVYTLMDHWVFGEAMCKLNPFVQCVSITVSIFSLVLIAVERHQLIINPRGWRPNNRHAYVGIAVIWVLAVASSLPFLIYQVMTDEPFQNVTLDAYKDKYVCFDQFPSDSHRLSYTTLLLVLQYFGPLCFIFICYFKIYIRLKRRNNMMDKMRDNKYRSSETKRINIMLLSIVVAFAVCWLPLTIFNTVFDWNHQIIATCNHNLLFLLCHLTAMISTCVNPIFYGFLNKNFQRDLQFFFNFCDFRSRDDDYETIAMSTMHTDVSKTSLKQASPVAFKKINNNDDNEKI
Summary of the method: as §1

Human opioid (ORL1) = biological target: T8, Human opioid (ORL1) (Homo sapiens, UniProt P41146); assay: Radioligand binding, human opioid ORL1 membranes, FlashPlate, [125I]-Nociceptin; conditions: compound at 10 μM, [125I]-Nociceptin; for A10: inhibition of radioligand binding: human ORL1 membranes
T8 construct: purchased Perkin Elmer Biosignal
Summary of the method: as §1

Human neurokinin (NK1) = biological target: T9, Human neurokinin (NK1) (Homo sapiens, UniProt P25103); assay: Radioligand binding, human neurokinin NK1 membranes, filtration, [125I]-Substance P; conditions: compound at 10 μM, [125I]-Substance P; for A8: inhibition of radioligand binding: human NK1 membranes
T9 construct: purchased Perkin Elmer Biosignal
Summary of the method: (§2)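 Percent inhibition of radioligand binding measured on recombinant human membranes: NK1 with [125I]-Substance P, KOP with [3H]-Diprenorphine. Incubation 1 h at room temperature, then harvest onto 0.3% PEI-soaked filters, cold Tris-HCl pH 7.4 washes and scintillation counting; non-specific binding from reference ligand wells.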

Human κ-Opioid (KOP) = biological target: T10, Human κ-Opioid (KOP) (Homo sapiens, UniProt P41145); assay: Radioligand binding, human κ-opioid (KOP) membranes, filtration, [3H]-Diprenorphine; conditions: compound at 10 μM, [3H]-Diprenorphine; for A2: inhibition of radioligand binding: human KOP membranes
T10 construct: purchased Perkin Elmer Biosignal
Summary of the method: as §2

Human Melanocortin (MC4) = biological target: T11, Human Melanocortin (MC4) (Homo sapiens, UniProt P32245); assay: Radioligand binding, human melanocortin MC4 membranes, FlashPlate, [125I]-NDP-αMSH; conditions: compound at 10 μM, [125I]-NDP-αMSH; for A4: inhibition of radioligand binding: human MC4 membranes
T11 construct: purchased Perkin Elmer Biosignal
Summary of the method: as §1

T10 sequence (P41145 whole entry): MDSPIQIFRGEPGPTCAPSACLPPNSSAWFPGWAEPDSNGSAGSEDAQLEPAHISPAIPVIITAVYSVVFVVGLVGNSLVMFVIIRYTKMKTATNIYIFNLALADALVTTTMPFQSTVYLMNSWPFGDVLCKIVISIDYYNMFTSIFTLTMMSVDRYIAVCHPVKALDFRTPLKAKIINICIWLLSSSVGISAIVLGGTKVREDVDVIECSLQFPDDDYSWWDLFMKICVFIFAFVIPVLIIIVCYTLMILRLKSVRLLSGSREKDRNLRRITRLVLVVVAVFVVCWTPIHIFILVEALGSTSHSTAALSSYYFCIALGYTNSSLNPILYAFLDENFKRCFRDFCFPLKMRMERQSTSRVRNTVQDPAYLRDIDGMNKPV
T6 sequence (P41143 whole entry): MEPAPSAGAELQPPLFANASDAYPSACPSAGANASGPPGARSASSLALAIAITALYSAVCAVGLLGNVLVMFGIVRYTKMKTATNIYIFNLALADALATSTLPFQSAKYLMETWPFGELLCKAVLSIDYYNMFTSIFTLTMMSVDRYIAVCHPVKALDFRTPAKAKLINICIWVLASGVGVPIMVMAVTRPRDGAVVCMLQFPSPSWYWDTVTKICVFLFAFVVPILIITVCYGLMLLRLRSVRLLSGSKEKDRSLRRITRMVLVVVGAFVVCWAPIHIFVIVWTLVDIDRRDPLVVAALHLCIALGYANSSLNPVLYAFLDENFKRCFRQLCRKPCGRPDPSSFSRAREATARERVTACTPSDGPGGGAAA
T4 sequence (P41968 whole entry): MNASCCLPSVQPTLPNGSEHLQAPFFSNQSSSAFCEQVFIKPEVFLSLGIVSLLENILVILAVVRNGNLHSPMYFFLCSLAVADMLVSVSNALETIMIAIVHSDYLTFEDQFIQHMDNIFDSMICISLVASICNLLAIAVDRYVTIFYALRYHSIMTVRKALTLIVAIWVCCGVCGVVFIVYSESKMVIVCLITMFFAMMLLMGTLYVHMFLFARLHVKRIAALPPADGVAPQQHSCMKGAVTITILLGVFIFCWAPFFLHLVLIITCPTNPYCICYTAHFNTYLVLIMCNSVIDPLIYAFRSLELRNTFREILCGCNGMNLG
T3 sequence (P35372 whole entry): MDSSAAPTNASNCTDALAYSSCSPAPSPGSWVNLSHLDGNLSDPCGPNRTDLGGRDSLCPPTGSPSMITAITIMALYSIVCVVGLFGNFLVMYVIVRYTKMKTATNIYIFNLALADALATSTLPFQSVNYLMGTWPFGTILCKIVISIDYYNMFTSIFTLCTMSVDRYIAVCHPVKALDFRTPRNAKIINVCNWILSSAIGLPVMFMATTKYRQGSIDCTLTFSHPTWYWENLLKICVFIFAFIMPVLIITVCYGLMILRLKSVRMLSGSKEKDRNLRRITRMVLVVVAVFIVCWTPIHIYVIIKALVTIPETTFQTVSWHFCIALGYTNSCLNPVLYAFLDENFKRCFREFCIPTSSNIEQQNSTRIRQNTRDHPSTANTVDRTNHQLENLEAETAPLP
T1 sequence (P33032 whole entry): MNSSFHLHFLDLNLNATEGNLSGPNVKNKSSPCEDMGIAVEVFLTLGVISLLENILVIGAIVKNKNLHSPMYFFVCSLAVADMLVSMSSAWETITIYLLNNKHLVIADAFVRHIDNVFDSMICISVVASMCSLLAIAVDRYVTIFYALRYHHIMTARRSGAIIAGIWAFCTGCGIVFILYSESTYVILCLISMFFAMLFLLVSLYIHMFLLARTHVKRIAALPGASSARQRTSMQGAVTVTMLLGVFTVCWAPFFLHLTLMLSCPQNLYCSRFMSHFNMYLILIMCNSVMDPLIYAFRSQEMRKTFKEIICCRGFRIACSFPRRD
T5 sequence (Q99705 whole entry): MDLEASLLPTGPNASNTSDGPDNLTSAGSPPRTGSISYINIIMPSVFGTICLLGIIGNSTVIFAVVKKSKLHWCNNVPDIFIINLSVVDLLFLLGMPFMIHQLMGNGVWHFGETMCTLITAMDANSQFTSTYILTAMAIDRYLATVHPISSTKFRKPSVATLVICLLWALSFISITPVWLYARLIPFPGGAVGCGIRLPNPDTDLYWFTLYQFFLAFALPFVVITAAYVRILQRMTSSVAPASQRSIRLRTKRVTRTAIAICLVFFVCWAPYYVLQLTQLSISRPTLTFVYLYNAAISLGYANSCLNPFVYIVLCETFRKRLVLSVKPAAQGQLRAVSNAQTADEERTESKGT
T9 sequence (P25103 whole entry): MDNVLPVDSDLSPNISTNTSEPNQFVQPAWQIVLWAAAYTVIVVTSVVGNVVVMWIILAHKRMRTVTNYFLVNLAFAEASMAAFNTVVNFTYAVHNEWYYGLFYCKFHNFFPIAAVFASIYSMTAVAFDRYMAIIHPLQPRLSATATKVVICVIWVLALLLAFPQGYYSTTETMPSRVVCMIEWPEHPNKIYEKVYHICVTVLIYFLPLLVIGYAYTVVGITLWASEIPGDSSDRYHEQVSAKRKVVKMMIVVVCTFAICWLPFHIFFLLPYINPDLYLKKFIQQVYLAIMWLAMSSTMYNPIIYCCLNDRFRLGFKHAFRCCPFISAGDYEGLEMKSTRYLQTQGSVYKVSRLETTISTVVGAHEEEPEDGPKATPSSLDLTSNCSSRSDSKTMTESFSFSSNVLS
T11 sequence (P32245 whole entry): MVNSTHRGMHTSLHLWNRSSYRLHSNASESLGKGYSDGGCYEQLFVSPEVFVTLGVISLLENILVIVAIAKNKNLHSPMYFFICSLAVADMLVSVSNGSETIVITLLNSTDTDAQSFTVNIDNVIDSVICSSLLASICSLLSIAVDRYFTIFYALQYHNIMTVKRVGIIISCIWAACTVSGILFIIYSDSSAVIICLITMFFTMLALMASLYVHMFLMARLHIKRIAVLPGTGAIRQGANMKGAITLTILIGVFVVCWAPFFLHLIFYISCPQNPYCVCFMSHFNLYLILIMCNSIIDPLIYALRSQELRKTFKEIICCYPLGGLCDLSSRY
T8 sequence (P41146 whole entry): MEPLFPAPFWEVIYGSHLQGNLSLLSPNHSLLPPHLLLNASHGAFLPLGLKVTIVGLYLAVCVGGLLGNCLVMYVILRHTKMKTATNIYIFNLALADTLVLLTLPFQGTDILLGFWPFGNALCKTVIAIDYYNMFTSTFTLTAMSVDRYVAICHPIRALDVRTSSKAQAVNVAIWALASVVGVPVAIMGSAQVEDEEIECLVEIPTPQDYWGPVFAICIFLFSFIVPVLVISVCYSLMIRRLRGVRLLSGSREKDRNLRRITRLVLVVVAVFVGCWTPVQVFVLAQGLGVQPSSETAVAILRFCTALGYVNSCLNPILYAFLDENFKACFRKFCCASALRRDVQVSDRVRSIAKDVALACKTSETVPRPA

SMILES	A5: inhibition of radioligand binding (Human melanocortin (MC5))	A11: inhibition of radioligand binding (Mouse urotensin (mUR2))	A7: inhibition of radioligand binding (Human μ-opioid (MOP))	A3: inhibition of radioligand binding (Human Melanocortin (MC3))	A6: inhibition of radioligand binding [1]	A1: inhibition of radioligand binding (Human δ-opioid (DOP))	A9: inhibition of radioligand binding [2]	A10: inhibition of radioligand binding (Human opioid (ORL1))	A8: inhibition of radioligand binding (Human neurokinin (NK1))	A2: inhibition of radioligand binding (Human κ-Opioid (KOP))	A4: inhibition of radioligand binding (Human Melanocortin (MC4))	A5 radioligand binding, percentage inhibition (Human melanocortin (MC5))	A11 radioligand binding, percentage inhibition (Mouse urotensin (mUR2))	A7 radioligand binding, percentage inhibition (Human μ-opioid (MOP))	A3 radioligand binding, percentage inhibition (Human Melanocortin (MC3))	A6 radioligand binding, percentage inhibition ([1]; [125I]-S36057)	A1 radioligand binding, percentage inhibition (Human δ-opioid (DOP))	A9 radioligand binding, percentage inhibition [2]	A10 radioligand binding, percentage inhibition (Human opioid (ORL1))	A8 radioligand binding, percentage inhibition (Human neurokinin (NK1))	also measured
COCC1OC(OCc2ccc3ccccc3c2)C(NC(=O)CCN)C(OCc2ccc3ccccc3c2)C1O (stereo not shown) [compound 546]																					A5: inhibition of radioligand binding, human melanocortin (MC5) (Human melanocortin (MC5); 10 µM): + (“+” indicates greater than 50% inhibition at 10 μM); A11: inhibition of radioligand binding, mouse urotensin (mUR2) (Mouse urotensin (mUR2)): − (“−” indicates less than 50% inhibition at 10 μM); A7: inhibition of radioligand binding, human μ-opioid (MOP) (Human μ-opioid (MOP)): − (“−” indicates less than 50% inhibition at 10 μM); A3: inhibition of radioligand binding, human melanocortin (MC3) (Human Melanocortin (MC3)): − (“−” indicates less than 50% inhibition at 10 μM); A6: inhibition of radioligand binding, human melanin-concentrating hormone (MCH1) ([1]; [125I]-S36057): − (“−” indicates less than 50% inhibition at 10 μM); A1: inhibition of radioligand binding, human δ-opioid (DOP) (Human δ-opioid (DOP)): − (“−” indicates less than 50% inhibition at 10 μM); A9: inhibition of radioligand binding, human neuropeptide Y (NPY-Y1) [2]: − (“−” indicates less than 50% inhibition at 10 μM); A10: inhibition of radioligand binding, human opioid (ORL1) (Human opioid (ORL1)): − (“−” indicates less than 50% inhibition at 10 μM); A8: inhibition of radioligand binding, human neurokinin (NK1) (Human neurokinin (NK1); 10 µM): − (“−” indicates less than 50% inhibition at 10 μM); A2: inhibition of radioligand binding, human κ-opioid (KOP) (Human κ-Opioid (KOP)): − (“−” indicates less than 50% inhibition at 10 μM); A4: inhibition of radioligand binding, human melanocortin (MC4) (Human Melanocortin (MC4)): − (“−” indicates less than 50% inhibition at 10 μM)
NCCC(=O)NC1C(OCc2ccc(Cl)cc2)OC(COCc2ccc(Cl)cc2)C(O)C1OCc1ccc(Cl)cc1 (single isomer, unassigned) [compound 475]	+ (“+” indicates greater than 50% inhibition at 10 μM)	− (“−” indicates less than 50% inhibition at 10 μM)	− (“−” indicates less than 50% inhibition at 10 μM)	− (“−” indicates less than 50% inhibition at 10 μM)	− (“−” indicates less than 50% inhibition at 10 μM)	− (“−” indicates less than 50% inhibition at 10 μM)	− (“−” indicates less than 50% inhibition at 10 μM)	− (“−” indicates less than 50% inhibition at 10 μM)	+ (“+” indicates greater than 50% inhibition at 10 μM)	− (“−” indicates less than 50% inhibition at 10 μM)	+ (“+” indicates greater than 50% inhibition at 10 μM)										
CO[C@H]1[C@H](O)[C@@H](COCc2ccc(Cl)cc2)OC(OCCc2ccccc2)[C@@H]1NC(=O)CCNC(=N)N (stereo partly shown) [compound 120]												+ (“+” indicates greater than 50% inhibition at 10 μM)	− (“−” indicates less than 50% inhibition at 10 μM)	− (“−” indicates less than 50% inhibition at 10 μM)	− (“−” indicates less than 50% inhibition at 10 μM)	− (“−” indicates less than 50% inhibition at 10 μM)	− (“−” indicates less than 50% inhibition at 10 μM)	− (“−” indicates less than 50% inhibition at 10 μM)	− (“−” indicates less than 50% inhibition at 10 μM)	+ (“+” indicates greater than 50% inhibition at 10 μM)	A2 radioligand binding, percentage inhibition (Human κ-Opioid (KOP)): + (“+” indicates greater than 50% inhibition at 10 μM); A4 radioligand binding, percentage inhibition (Human Melanocortin (MC4)): + (“+” indicates greater than 50% inhibition at 10 μM)
NCCC(=O)NC1C(OCc2ccc3ccccc3c2)OC(COCc2ccc3ccccc3c2)C(O)C1OCc1ccc(Cl)cc1 (stereo not shown) [compound 381]	+ (“+” indicates greater than 50% inhibition at 10 μM)	− (“−” indicates less than 50% inhibition at 10 μM)	− (“−” indicates less than 50% inhibition at 10 μM)	+ (“+” indicates greater than 50% inhibition at 10 μM)	− (“−” indicates less than 50% inhibition at 10 μM)	− (“−” indicates less than 50% inhibition at 10 μM)	− (“−” indicates less than 50% inhibition at 10 μM)	− (“−” indicates less than 50% inhibition at 10 μM)	+ (“+” indicates greater than 50% inhibition at 10 μM)	− (“−” indicates less than 50% inhibition at 10 μM)	+ (“+” indicates greater than 50% inhibition at 10 μM)										
CO[C@H]1[C@H](O)[C@@H](COCc2cccc(O)c2)OC(OCCc2ccccc2)[C@@H]1NC(=O)CCCNC(=N)N (stereo partly shown) [compound 161]												− (“−” indicates less than 50% inhibition at 10 μM)	− (“−” indicates less than 50% inhibition at 10 μM)	− (“−” indicates less than 50% inhibition at 10 μM)	− (“−” indicates less than 50% inhibition at 10 μM)	− (“−” indicates less than 50% inhibition at 10 μM)	− (“−” indicates less than 50% inhibition at 10 μM)	− (“−” indicates less than 50% inhibition at 10 μM)	− (“−” indicates less than 50% inhibition at 10 μM)	+ (“+” indicates greater than 50% inhibition at 10 μM)	A2 radioligand binding, percentage inhibition (Human κ-Opioid (KOP)): − (“−” indicates less than 50% inhibition at 10 μM); A4 radioligand binding, percentage inhibition (Human Melanocortin (MC4)): − (“−” indicates less than 50% inhibition at 10 μM)
